# Assay results taken from ChEMBL document CHEMBL1201862, “PubChem BioAssay data set” (2004).
# Activity calls are given as the source filed them.
# Legend:
# [1] = biological target: T1, Oxysterols receptor LXR-beta (Homo sapiens, UniProt P55055); format: functional, cell-based;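 also: Cell-based luminescence dose-response assay of agonist activity at LXR, run as a confirmatory counterscreen to a daf-12 agonist screen; HEK293 cells with Gal4-LXR fusion and GAL4-driven luciferase reporter; agonist potency from rising luciferase signal of a Gal4-LXR reporter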
# T1 sequence (P55055 whole entry): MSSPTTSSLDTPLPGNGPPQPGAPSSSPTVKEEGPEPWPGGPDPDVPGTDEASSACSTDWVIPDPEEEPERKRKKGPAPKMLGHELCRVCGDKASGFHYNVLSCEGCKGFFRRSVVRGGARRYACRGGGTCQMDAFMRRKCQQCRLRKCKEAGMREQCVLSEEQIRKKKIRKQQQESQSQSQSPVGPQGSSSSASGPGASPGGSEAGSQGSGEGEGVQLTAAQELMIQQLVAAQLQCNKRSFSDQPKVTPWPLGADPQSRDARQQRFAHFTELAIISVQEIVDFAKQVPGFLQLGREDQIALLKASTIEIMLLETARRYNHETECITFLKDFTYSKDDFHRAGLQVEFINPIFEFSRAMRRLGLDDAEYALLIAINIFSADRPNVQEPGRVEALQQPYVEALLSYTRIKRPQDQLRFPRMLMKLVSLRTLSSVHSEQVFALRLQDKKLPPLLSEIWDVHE
# cells [2] = assay: cells
# Kallikrein-7 = Kallikrein-7 (Homo sapiens, UniProt P49862); assay: Fluorescence Intensity-based biochemical primary high throughput dose response assay to identify activators of kallikrein-7 (K7) zymogen.
# Sequence of Kallikrein-7 (P49862 whole entry): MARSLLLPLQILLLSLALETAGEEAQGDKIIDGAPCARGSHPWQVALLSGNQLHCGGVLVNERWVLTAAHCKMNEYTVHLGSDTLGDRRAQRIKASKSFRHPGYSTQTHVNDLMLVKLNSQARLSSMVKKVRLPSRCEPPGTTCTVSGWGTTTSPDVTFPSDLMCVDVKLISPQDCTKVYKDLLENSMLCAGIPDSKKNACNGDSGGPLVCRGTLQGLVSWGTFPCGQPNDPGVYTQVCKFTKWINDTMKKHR
# [3] = biological target: Glucose-6-phosphate 1-dehydrogenase (Homo sapiens, UniProt P11413); assay: inhibition of Homo sapiens G6PD, dose series – biochemical, fluorescence, selectivity assay for P. falciparum G6PD inhibitor project, dose response (AID 504792); format: functional
# Sequence of Glucose-6-phosphate 1-dehydrogenase (P11413 whole entry): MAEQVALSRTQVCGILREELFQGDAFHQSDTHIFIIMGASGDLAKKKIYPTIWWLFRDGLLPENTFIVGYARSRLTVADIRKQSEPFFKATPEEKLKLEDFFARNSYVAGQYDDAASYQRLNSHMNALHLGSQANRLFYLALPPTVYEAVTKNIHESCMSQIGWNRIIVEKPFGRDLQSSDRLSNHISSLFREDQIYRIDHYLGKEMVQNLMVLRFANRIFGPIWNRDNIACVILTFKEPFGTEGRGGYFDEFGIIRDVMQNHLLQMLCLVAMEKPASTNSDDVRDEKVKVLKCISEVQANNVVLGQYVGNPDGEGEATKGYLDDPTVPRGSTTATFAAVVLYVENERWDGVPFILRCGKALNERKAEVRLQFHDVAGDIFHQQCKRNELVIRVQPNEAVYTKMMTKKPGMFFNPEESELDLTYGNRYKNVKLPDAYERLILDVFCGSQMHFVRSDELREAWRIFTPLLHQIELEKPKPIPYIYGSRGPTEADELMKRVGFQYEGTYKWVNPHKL
# [4] = viability loss in HeLa cells – cytotoxicity control for MgcRacGAP inhibitor project, dose response (AID 624300); format: functional
# [5] = biological target: T2, Rac GTPase-activating protein 1 (Homo sapiens, UniProt Q9H0H5); assay: blockers of MgcRacGAP-driven Rac1 GTP hydrolysis – biochemical, ADP Hunter fluorescence, primary and confirmatory, confirmation (AID 624330); format: functional
# T2 sequence (Q9H0H5 whole entry): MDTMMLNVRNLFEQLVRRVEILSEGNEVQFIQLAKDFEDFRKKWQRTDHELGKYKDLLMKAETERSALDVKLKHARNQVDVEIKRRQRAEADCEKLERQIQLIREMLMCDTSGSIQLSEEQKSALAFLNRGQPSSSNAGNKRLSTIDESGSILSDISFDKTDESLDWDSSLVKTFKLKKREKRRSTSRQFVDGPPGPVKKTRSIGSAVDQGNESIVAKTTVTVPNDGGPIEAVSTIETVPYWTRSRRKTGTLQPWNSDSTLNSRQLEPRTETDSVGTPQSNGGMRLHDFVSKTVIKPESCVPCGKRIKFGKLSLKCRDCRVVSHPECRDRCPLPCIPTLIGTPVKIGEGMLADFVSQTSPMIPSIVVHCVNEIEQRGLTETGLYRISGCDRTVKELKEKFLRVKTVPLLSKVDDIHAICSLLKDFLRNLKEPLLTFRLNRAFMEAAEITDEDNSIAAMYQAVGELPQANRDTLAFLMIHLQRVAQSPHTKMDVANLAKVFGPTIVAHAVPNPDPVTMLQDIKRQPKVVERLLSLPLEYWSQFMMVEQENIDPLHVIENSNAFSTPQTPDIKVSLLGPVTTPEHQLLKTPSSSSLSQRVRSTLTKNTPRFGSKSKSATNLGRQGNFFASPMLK
# Galanin receptor type 3 = biological target: T3, Galanin receptor type 3 (Homo sapiens, UniProt O60755); assay: Fluorescence-based cell-based primary high throughput dose response assay to identify antagonists of the Galanin Receptor 3 (GalR3).; format: functional
# T3 sequence (O60755 whole entry): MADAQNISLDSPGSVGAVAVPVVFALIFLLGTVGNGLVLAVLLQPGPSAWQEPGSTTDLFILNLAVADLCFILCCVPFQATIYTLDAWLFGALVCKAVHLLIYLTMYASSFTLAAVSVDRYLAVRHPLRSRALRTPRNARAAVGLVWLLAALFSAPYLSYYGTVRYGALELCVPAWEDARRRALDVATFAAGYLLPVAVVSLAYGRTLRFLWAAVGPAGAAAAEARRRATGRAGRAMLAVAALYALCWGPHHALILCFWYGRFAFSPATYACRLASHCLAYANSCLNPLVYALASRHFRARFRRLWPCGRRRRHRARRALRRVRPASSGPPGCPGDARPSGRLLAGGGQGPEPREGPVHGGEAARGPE
# cells [6] = format: functional, cell-based; conditions: HEK-CNG
# Ephrin type-A receptor 4 = Ephrin type-A receptor 4 (Mus musculus, UniProt Q03137); assay: EphA4 ligand-binding antagonists – biochemical, colorimetric, mouse EphA4, primary screen (AID 689); format: functional
# Sequence of Ephrin type-A receptor 4 (Q03137 whole entry): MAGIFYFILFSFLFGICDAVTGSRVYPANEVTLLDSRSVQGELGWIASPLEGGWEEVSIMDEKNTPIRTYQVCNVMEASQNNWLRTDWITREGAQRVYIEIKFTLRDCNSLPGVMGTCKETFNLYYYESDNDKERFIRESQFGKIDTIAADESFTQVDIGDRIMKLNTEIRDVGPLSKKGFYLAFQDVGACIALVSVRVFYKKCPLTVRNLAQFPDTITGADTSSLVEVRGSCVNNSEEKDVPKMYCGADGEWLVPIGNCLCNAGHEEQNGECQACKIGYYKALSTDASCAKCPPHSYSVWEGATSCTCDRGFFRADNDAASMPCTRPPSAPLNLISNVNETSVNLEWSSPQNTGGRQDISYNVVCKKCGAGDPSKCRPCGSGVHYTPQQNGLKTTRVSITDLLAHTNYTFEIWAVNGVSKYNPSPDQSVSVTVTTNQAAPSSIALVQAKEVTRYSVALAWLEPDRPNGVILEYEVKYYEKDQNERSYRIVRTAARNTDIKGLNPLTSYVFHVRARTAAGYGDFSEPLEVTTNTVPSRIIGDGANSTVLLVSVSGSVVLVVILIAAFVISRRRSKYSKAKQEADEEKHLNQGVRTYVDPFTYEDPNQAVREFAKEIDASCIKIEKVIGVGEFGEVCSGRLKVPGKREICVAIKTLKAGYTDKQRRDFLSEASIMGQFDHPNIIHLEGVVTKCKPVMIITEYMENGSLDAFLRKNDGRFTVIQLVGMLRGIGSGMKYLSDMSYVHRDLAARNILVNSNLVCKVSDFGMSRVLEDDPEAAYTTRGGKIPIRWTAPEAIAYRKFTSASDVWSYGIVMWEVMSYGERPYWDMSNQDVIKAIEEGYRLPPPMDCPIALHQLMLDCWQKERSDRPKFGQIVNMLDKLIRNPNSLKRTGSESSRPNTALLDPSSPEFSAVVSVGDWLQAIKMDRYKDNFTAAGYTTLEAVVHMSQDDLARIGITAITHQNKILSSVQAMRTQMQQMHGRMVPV
# H9c2 = assay: cells; format: functional, cell-based; conditions: Rattus norvegicus, H9c2, Myocardium;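 also: confirmatory concentration-response retest of ultra-high-throughput screening hits for modulation of myocardial damage; cell death induced by hydrogen peroxide oxidative stress; compound pretreatment for 60 min then peroxide exposure for 2 h; potency is for protecting the cells against peroxide damage rather than for killing them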
# [7] = biological target: Luciferin 4-monooxygenase (Photinus pyralis, UniProt P08659); assay: inhibition of purified Photinus pyralis luciferase – biochemical, luminescence, dose response (AID 1891)
# Sequence of Luciferin 4-monooxygenase (P08659 whole entry): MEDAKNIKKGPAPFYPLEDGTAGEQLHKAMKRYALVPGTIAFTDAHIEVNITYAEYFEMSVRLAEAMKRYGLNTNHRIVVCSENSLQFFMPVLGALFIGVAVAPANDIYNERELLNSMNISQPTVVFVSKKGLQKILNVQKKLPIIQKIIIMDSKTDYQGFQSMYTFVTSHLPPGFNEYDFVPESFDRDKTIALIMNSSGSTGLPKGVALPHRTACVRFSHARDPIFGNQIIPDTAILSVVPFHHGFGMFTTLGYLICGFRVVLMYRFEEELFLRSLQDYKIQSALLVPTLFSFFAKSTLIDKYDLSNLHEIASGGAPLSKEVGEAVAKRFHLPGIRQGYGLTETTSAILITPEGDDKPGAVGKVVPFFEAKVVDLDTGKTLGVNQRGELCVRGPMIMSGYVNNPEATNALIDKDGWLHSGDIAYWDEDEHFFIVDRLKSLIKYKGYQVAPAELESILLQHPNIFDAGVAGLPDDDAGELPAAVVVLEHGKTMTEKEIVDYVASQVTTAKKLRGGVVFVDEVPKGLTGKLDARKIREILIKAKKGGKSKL
# [8] = Luminescence Cell-Based Dose Confirmation HTS to Identify Inhibitors of Platelet Dense Granule Release. [Related pubchem assays: 1663 (Primary HTS), 1678 (Summary of Project)]; format: functional
# [9] = biological target: T4, Carboxy-terminal domain RNA polymerase II polypeptide A small phosphatase 1 (Homo sapiens, UniProt Q9GZU7); assay: CTDSP1 inhibitors, concentration-response, biochemical, absorbance readout, ultra-high-throughput screen actives (AID 540297); format: functional
# T4 sequence (Q9GZU7 whole entry): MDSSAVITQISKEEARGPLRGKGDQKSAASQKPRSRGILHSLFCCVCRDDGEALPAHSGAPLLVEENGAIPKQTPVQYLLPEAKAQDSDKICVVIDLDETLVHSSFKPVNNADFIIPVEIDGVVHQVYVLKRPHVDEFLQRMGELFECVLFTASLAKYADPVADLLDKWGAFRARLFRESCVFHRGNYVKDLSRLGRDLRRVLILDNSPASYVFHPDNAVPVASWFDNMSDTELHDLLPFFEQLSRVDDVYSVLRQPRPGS
# Caspase-6 = biological target: T5, Caspase-6 (Homo sapiens, UniProt P55212); assay: inhibition of CASP6 peptide cleavage – biochemical, VEID-R110 fluorescence, cherry-pick, dose response (AID 720632)
# T5 sequence (P55212 whole entry): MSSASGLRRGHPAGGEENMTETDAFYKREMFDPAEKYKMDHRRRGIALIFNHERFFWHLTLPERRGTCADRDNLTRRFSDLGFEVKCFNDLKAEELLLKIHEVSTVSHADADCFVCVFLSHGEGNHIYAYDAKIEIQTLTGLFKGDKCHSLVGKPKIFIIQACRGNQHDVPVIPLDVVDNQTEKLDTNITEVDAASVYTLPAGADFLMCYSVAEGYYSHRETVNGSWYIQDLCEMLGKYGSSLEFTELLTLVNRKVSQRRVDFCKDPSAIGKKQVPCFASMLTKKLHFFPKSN
# [10] = IC50 of Artemis nuclease activity blockers – biochemical, fluorescence intensity, dose response (AID 720701); format: functional;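 also: Artemis endonuclease enzyme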
# [11] = biological target: T6, Long-chain-fatty-acid--AMP ligase FadD28 (Mycobacterium tuberculosis, UniProt P9WQ59); assay: Fluorescence polarization aasay to screen for inhibitors that compete for the binding of FadD28 to a bisubstrate Measured in Biochemical System Using Plate Reader - 2147-01_Inhibitor_Dose_CherryPick_Activity.; format: functional, Mycobacterium tuberculosis H37Rv
# T6 sequence (P9WQ59 whole entry): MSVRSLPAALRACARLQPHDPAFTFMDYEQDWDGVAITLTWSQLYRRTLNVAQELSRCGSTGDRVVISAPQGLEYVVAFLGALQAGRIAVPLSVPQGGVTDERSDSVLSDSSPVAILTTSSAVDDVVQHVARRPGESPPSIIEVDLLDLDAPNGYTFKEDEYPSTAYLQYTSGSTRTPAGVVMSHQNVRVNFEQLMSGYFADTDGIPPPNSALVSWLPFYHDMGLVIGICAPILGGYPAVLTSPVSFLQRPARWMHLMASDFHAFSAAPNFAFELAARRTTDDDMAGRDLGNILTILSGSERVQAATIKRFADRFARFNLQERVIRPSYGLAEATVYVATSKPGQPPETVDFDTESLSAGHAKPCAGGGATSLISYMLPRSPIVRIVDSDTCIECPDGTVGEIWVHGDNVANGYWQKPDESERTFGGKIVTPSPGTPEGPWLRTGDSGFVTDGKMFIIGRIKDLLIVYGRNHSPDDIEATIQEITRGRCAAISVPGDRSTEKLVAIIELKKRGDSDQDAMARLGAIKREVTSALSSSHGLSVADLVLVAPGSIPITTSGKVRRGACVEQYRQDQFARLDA
# [12] = biological target: T7, Probable nicotinate-nucleotide adenylyltransferase (Staphylococcus aureus (strain N315), UniProt P65502); format: functional, Staphylococcus aureus subsp. aureus N315;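 as to IC50 Mean: confirmatory dose-response retesting of NadD inhibitor hits first found in an ultra-high-throughput screen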
# T7 sequence (P65502 whole entry): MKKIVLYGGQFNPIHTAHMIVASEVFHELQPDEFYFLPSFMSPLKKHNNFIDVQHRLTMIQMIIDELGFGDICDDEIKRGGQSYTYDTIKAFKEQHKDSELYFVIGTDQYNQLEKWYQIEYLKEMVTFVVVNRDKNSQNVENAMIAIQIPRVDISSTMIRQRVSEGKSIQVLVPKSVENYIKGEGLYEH
# [13] = biological target: T7, Probable nicotinate-nucleotide adenylyltransferase; format: functional, Staphylococcus aureus subsp. aureus N315; conditions: read-out: IC50_Mean
# [14] = biological target: T8, Low molecular weight phosphotyrosine protein phosphatase (Homo sapiens, UniProt P24666); format: functional; conditions: read-out: IC50_Mean;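 also: Dose-response confirmation assay measuring inhibition of LMPTP enzyme activity by fluorescence intensity read-out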
# T8 sequence (P24666 whole entry): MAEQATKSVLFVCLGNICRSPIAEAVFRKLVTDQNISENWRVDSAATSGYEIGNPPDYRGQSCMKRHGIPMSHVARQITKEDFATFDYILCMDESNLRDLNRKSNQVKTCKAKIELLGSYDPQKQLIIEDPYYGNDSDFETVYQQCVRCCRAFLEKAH
# Paired box protein Pax-8 = Paired box protein Pax-8 (Homo sapiens, UniProt Q06710); assay: PAX8 transcriptional activity inhibition in RMG-I – RMG-I cells, luciferase, cherry-pick, dose response (AID 687027); format: functional, cell-based;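 also: luciferase reporter driven by Pax8 target thyroperoxidase promoter measured by SteadyGlo luminescence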
# Sequence of Paired box protein Pax-8 (Q06710 whole entry): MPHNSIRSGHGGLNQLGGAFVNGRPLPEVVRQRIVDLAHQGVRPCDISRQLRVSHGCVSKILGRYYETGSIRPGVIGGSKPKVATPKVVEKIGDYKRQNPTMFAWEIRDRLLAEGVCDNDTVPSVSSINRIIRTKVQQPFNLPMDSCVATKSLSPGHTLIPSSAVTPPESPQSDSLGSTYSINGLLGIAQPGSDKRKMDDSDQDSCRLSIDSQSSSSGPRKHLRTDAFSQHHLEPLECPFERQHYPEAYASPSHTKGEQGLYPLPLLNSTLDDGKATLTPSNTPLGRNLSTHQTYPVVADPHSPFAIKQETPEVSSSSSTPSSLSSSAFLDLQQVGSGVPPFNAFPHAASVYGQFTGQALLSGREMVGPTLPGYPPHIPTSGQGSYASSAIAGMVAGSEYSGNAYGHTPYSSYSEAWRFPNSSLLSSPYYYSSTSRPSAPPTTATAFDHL
# [15] = toxicity toward immortalized ovarian surface epithelium – cell-based, plate reader, dry powder samples, cytotoxicity control for PAX8 inhibitor project, dose response (AID 743045); format: functional
# [16] = OVCAR-3 cell viability loss – plate reader, dry powder samples, PAX8 inhibitor project, dose response (AID 743044); format: functional, cell-based
# [17] = IGROV1 cell killing – plate reader, dry powder samples, PAX8 inhibitor project, dose response (AID 743043); format: functional, cell-based; conditions: IGROV-1
# [18] = OVCAR8 cell viability loss – plate reader, dry powder samples, PAX8 project, dose response (AID 743197); format: functional, cell-based; conditions: OVCAR-8
# [19] = system: Streptococcus sp. 'group A'; assay: Streptococcus pyogenes SK(-)GAS viability under kanamycin – luminescence, BacTiterGlo, confirmation, counter-screen for streptokinase expression inhibitor project, dose response (AID 1900); format: functional, organism-based
# Streptococcus = assay: GAS UMAA2166 growth inhibition – luminescence, BacTiterGlo, counter-screen for streptokinase expression inhibitor project, dose response (AID 1915); format: functional, organism-based;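 also: potency for reduction of bacterial viability or growth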
compound,measurement,setting,value
CC1CCCCN1C(=O)CSc1nnc(-c2ccccc2O)o1 (stereo unspecified),EC50,[1],> 67.5 µM (inactive)
same,EC50,cells [2],> 67.5 µM (inactive)
CCC(NC(=O)CCc1c(C)c2cc3c(C)c(C)oc3cc2oc1=O)C(=O)N[C@@H](Cc1ccccc1)C(=O)O (stereo partly specified),EC50,Kallikrein-7,> 69.5 µM (inactive)
COc1cccc(CNc2ccc3[nH]c(O)nc3c2)c1OCc1ccccc1Cl,IC50,[3],> 80 µM (inactive)
same,CC50,[4],100 µM (active)
same,IC50,[5],69 µM (active)
O=[N+]([O-])c1[nH]c2nc(O)nc-2cc1Cl,IC50,Galanin receptor type 3,16.7 µM (inactive)
same,EC50,cells [6],> 29.9 µM (inactive)
Cc1ccc(S(=O)(=O)/C(C#N)=C/c2c(N3CCOCC3)nc3ccccn3c2=O)cc1,IC50,Ephrin type-A receptor 4,> 100 µM (not active)
N#CC(c1nc2ccccc2nc1N1CCCC1)S(=O)(=O)c1cccs1 (stereo unspecified),IC50,Ephrin type-A receptor 4,> 100 µM (not active)
same,IC50,H9c2,> 79 µM (inactive)
Cc1ccc(N=Nc2cc(C)ccc2N)cc1,EC50,[7],0.149 µM (active)
same,EC50,[8],3.15 µM (active)
same,EC50,[1],> 67.5 µM (inactive)
same,EC50,cells [2],> 67.5 µM (inactive)
Cc1ccc(-c2nc(O)c3sccc3n2)cc1,EC50,[1],> 67.5 µM (inactive)
same,EC50,cells [2],> 67.5 µM (inactive)
CC1CCC2(CC1)NC(=O)N(CC(=O)Nc1sc3c(c1C(N)=O)CCC3)C2=O (stereo unspecified),IC50,[9],3.44 µM (active)
same,AC50,Caspase-6,10.9 µM (active)
CCSC1=N/C(=C\c2ccc(-c3ccccc3[N+](=O)[O-])o2)C(=O)S1,IC50,Ephrin type-A receptor 4,> 100 µM (not active)
same,IC50,[10],0.967 µM (active)
Cc1ccc(NC(=O)CNc2ccccc2N2CCCC2=O)cc1S(=O)(=O)N1CCCCC1,AC50,[11],48.3 µM (active)
Oc1ccc(C[C@H]2CNC(=S)N2CC2CCCN2C[C@H](Cc2ccc(O)cc2)N2C[C@H](Cc3ccccc3)N(CC3CCCCC3)C2=S)cc1 (stereo partly specified),IC50,[12],16.3 µM (active)
same,IC50,[13],22.1 µM (active)
CN(C)c1ccc(C(=O)C=Cc2ccc([N+](=O)[O-])cc2)cc1,IC50,[14],80 µM (inactive)
Nc1c(Br)cc(Br)c2c1nc(O)c1ccccc12,AC50,Caspase-6,18.1 µM (active)
C[C@@H]1CN([C@H](C)CO)C(=O)c2cc(NC(=O)Nc3ccc(C(F)(F)F)cc3)ccc2O[C@@H](C)CCCCO[C@H]1CN(C)C(=O)c1ccccc1,AC50,Paired box protein Pax-8,12.1 µM (active)
same,AC50,[15],37.5 µM (active)
same,AC50,[16],33.2 µM (active)
same,AC50,[17],35.6 µM (active)
same,AC50,[18],50.7 µM (active)
CC(C)(C)c1cc(/C=N/NC(=O)Cc2nc3ccccc3[nH]2)cc(C(C)(C)C)c1O,IC50,[10],> 20 µM (inactive)
O=C(O)c1ccc(N/N=C/c2cc(Br)cs2)cc1,AC50,[11],32 µM (inactive)
CC[C@H]1OC(=O)[C@H](C)[C@@H](O[C@H]2C[C@@](C)(OC)[C@@H](O)[C@H](C)O2)[C@H](C)[C@@H](O[C@@H]2O[C@H](C)C[C@H](N(C)C)[C@H]2O)[C@](C)(O)C[C@@H](C)C(=O)[C@H](C)[C@@H](O)[C@]1(C)O [ERYTHROMYCIN],EC50,[19],< 0.06 µM (active)
same,EC50,Streptococcus,< 0.06 µM (active)
same,IC50,[14],47.1 µM (inactive)
